The nature of this assay: CD4 mimetic activity at gp120 in HIV-1 KP-5mvcR infected in human TZM-bl cells assessed as inhibition of viral entry by measuring reduction in RLU by single round assay.

Values joined by “and” are separate entries in the source; they are usually repeats but may differ in a detail not shown here. Equal values may be shown once.

In general, IC50 refers to the concentration that gives 50% inhibition. On to `CC1(C)CC(NC(=O)C(=O)Nc2ccc(F)nc2)CC(C)(C)N1`, for which the half-inhibitory concentration (IC50) stood at 5.1 µM.

For `N=C(N)NCCCCC(=O)NCCN1CCC(NC(=O)C(=O)Nc2ccc(Cl)cc2)CC12CCCCC2` (stereo not drawn), the IC50 is 0.29 µM and 1.5 µM.

For the molecule `COCCOCCOCCOCCOCCOCCOCCOCCOCCOCCOCCOCCNC(=O)CCC(=O)N[C@@H](CCCNC(=N)N)C(=O)NCCN1CCC(NC(=O)C(=O)Nc2ccc(Cl)cc2)CC12CCCCC2` (stereo partly drawn), the IC50 was 6.7 µM.

As to `COCCOCCOCCOCCOCCOCCOCCOCCOCCOCCOCCOCCNC(=O)CCC(=O)N[C@@H](CCCNC(=N)N)C(=O)NCCN1CCC(NC(=O)C(=O)Nc2ccc(F)nc2)CC12CCCCC2` (stereo partly drawn), the IC50 is > 100 µM.

Regarding `N=C(N)NCCCCC(=O)NCCN1CCC(NC(=O)C(=O)Nc2cncc(F)c2)CC12CCCCC2` (stereo not drawn), the IC50 was > 100 µM.

With `N=C(N)NCCCCC(=O)NCCN1CCC(NC(=O)CNc2ccc(Cl)cn2)CC1`, the IC50 is > 100 µM.

For the molecule `N=C(N)NCCCCC(=O)NCCN1CCC(NC(=O)C(=O)Nc2ccc(Cl)cn2)CC1`, the IC50 was > 100 µM.

As to `CC1(C)CC(NC(=O)C(=O)Nc2ccc(Cl)cc2)CC(C)(C)N1` [N-(4-chlorophenyl)-N'-(2,2,6,6-tetramethylpiperidin-4-yl)-oxalamide], the IC50 is 0.27 µM.

Source of the values: BindingDB's records for PubMed 35063895 (Tokyo Medical and Dental University, 2022).
